According to patent EP4105218A1, “SUBSTITUTED PYRROLO[2,3-D] PYRIMIDINES, THEIR PREPARATION AND THEIR THERAPEUTIC APPLICATION” (SANOFI, priority 2021, dated 2022):

Columns and labels:
LRRK2-G2019S(human) = target: T1, LRRK2-G2019S(human) (Homo sapiens, UniProt Q5S007, G2019S); assay: LRRK2-G2019S Kinase activity assay (Lanthascreen TR-FRET); format: biochemical; settings: full-length LRRK2 G2019S, LRRKtide substrate, 1.1mM ATP
T1 construct: DYKDDDDK (FLAG)
Experimental: LRRK2-G2019S Kinase activity assay: The measurements of the activities were made using a LRRK2-G2019S(human) Kinase activity assay as described hereunder. The potency of compounds was evaluated in vitro using the Lanthascreen® technology (ThermoFisher Scientific).
The biological assay requires the […]-tagged full-length LRRK2 G2019S protein, the fluorescent peptide substrate named LRRKtide or ERM ([…] supplied by PolyPeptide Group), the ATP substrate, and different concentrations of test compounds. In a typical experiment, the reaction assay buffer contains 50mM Tris pH8.2, 1mM EGTA, 2.5mM MgCl2, 0.05% Triton X100, 0.15% BSA and 1mM DTT. The detection of the assay is performed using 1nM Terbium labeled anti-phospho-LRRKtide (ThermoFisher Scientific) diluted in a TR-FRET buffer (ThermoFisher Scientific).
The experimental procedure was performed with Greiner small volume® 384-well. The assay is started by a pre-incubation step of full-length LRRK2 G2019S mutant protein with reaction assay buffer and a dilution series of test compound for at least 30 minutes at room temperature. The working solution of compounds was prepared in a separate Greiner microplate.
The kinase reaction was initiated by addition of the ATP/LRRKtide substrate mix diluted in the reaction assay buffer. The reaction mix was incubated for at least 10 minutes at room temperature (initial velocity conditions). Reaction was stopped by addition of Terbium labeled anti-phospho-LRRKtide diluted into the detection buffer supplemented with EDTA (ThermoFisher Scientific). Plates are incubated for at least 30 minutes at room temperature and read on an Envision™ multimode plate reader (PerkinElmer) with LanthaScreen™. The TR-FRET 520:495 nm emission ratio was calculated and used to determine the IC50 value from a dose response curve fit to the 4-parameter logistic equation. The activity with respect to LRRK2 kinase in this test is given by the concentration which inhibits 50% of the LRRK2 activity (or IC50) in nM.

LRRK2(human) WT = LRRK2(human) WT (Homo sapiens, UniProt Q5S007); assay: LRRK2 WT assay (assay A), Lanthascreen TR-FRET; format: biochemical; settings: assay A (values without "*"): full-length LRRK2 wild type, 500uM ATP
Chain of LRRK2(human) WT (Q5S007 whole entry): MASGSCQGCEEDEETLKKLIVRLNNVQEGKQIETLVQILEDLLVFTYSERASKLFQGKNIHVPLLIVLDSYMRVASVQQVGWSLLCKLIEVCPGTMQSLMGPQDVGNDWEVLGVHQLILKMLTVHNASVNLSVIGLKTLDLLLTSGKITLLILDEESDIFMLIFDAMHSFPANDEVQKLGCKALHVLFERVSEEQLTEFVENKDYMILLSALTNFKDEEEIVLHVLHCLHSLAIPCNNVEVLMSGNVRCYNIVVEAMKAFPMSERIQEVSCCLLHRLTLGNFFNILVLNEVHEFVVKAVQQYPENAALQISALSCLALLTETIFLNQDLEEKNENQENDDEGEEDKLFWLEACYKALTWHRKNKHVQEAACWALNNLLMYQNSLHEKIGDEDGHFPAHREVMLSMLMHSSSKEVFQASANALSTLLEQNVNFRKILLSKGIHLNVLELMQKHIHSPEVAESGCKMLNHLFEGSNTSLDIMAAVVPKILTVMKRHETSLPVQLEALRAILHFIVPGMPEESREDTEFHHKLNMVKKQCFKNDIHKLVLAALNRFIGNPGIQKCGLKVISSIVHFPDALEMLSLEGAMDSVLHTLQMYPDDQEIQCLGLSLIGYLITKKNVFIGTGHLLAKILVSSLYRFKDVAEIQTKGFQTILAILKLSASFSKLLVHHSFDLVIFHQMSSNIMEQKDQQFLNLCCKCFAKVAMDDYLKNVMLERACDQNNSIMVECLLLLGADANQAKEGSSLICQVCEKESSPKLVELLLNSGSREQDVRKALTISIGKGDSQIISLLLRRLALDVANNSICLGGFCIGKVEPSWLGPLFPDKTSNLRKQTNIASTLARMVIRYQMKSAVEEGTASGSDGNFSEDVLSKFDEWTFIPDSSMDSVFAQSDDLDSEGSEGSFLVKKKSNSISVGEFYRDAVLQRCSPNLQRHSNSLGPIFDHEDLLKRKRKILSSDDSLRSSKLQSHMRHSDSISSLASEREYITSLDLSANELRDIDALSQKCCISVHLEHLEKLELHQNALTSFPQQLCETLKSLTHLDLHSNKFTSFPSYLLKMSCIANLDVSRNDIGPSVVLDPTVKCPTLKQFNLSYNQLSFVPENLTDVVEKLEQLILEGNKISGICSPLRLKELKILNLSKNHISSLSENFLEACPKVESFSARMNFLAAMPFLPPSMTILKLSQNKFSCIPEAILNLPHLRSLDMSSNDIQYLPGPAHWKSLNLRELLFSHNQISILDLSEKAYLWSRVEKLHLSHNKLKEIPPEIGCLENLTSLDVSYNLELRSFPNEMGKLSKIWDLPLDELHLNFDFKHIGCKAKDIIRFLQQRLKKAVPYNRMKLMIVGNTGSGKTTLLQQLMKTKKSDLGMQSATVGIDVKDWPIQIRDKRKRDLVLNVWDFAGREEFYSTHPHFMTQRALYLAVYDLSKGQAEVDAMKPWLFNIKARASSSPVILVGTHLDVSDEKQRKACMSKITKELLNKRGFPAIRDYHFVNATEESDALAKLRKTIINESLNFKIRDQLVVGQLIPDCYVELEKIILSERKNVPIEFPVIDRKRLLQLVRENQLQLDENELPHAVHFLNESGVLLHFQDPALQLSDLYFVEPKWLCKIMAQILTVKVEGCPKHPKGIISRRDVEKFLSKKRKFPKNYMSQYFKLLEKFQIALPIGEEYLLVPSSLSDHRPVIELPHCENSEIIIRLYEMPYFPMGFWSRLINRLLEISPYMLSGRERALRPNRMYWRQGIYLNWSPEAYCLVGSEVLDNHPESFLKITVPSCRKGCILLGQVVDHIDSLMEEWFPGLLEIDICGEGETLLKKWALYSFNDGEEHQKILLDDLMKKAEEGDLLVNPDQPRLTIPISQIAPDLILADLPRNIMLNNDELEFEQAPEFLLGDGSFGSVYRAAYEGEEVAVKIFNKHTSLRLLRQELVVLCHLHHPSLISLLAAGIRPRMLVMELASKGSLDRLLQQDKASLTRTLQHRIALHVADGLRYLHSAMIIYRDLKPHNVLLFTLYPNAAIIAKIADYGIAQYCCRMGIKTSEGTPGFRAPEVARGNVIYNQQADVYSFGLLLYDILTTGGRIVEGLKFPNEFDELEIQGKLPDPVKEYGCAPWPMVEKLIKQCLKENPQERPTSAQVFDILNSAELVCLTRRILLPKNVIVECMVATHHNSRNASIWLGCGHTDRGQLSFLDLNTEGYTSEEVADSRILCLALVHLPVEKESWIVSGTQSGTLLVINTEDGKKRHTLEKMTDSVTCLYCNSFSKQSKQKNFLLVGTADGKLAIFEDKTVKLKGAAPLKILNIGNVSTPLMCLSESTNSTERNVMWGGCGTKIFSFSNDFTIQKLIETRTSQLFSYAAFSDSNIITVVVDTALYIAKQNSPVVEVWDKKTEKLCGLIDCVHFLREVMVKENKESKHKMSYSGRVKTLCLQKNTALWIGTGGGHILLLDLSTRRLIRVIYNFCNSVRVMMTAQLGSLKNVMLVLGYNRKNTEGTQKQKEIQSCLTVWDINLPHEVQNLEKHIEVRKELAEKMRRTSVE

T1 sequence (Q5S007 whole entry G2019S): as the sequence (Q5S007 whole entry) above, with G2019S counted along it

| IC50 (LRRK2-G2019S(human)) | IC50 (LRRK2(human) WT) | SMILES |
| --- | --- | --- |
| 3 nM | 3 nM | CC(=O)N1CC(Oc2nn(C)cc2Nc2ncc3cc(C#N)n([C@H]4COC[C@@H]4C)c3n2)C1(C)C (single isomer, unassigned) [Example 17] |
| 5 nM |  | COCC(C)n1c(C#N)cc2cnc(Nc3cn(C)nc3OC3COC3C)nc21 (single isomer, unassigned) [Example 87, 7-[(1S)-2-methoxy-1-methyl-ethyl]-2-[[1-methyl-3-[(2S, 3R)-2-methyloxetan-3-yl]oxy-pyrazol-4-yl]amino]pyrrolo[2,3-d]pyrimidine-6-carbonitrile or 7-[(1S)-2-methoxy-1-methyl-ethyl]-2-[[1-methyl-3-[(2R, 3S)-2-methyloxetan-3-yl]oxy-pyrazol-4-yl]amino]pyrrolo[2,3-d]pyrimidine-6-carbonitrile] |
| 5 nM |  | [2H]C([2H])([2H])n1cc(Nc2ncc3cc(C#N)n(C(C)COC)c3n2)c(OC2COC2C)n1 (single isomer, unassigned) [Example 89, 7-[(1S)-2-methoxy-1-methyl-ethyl]-2-[[3-[(2S,3R)-2-methyloxetan-3-yl]oxy-1-(methyl-d3)pyrazol-4-yl]amino]pyrrolo[2,3-d]pyrimidine-6-carbonitrile or 7-[(1S)-2-methoxy-1-methyl-ethyl]-2-[[3-[(2R,3S)-2-methyloxetan-3-yl]oxy-1-(methyl-d3)pyrazol-4-yl]amino]pyrrolo[2,3-d]pyrimidine-6-carbonitrile] |
| 2 nM | 2 nM | CC(=O)N1CC(Oc2nn(C)cc2Nc2ncc3cc(C#N)n([C@H]4COC[C@@H]4C)c3n2)C1(C)C (single isomer, unassigned) [Example 18] |
